Data: patent publication US4973472A, “Dental plaque inhibitor” (Senju Pharmaceutical Col., Ltd., priority 1988, dated 1990)

How the values were obtained:
GTase = test: GTase-inhibitory activity (formation of insoluble glucan from sucrose, turbidity at 550 nm); type: biochemical, Streptococcus mutans ATCC 33402; conditions: for Optical density of reaction system: 550 nm
Experimental: The enzyme GTase was prepared from Streptococcus mutans and using sucrose as the substrate, the inhibitory effect of the test substances on the formation of insoluble glucan was determined.
The preparation of GTase was carried out in accordance with the description in Methods for Isolation of Microorganisms (Kazue Yamazato (ed.): R&D Planning), page 733, (1) Preparation of cell-free GTase. Thus, Streptococcus mutans ATCC 33402 was cultured (inoculum size 1%) in brain heart infusion broth (Difco; hereinafter referred to as BHI medium) under stationary conditions at 37° C. for 18 hours and the resulting culture was centrifuged at 4,000 rpm for 10 minutes. The supernatant was taken and ammonium sulfate was added at a final concentration of 60% saturation. The mixture was gently stirred at 4° C. overnight for salting-out and the precipitate was dissolved in 5 mM potassium phosphate buffer (pH 6.5). This solution was then dialyzed against the same buffer at 4° C. overnight to give a crude GTase preparation.
The assay of GTase activity was carried out by the method described in Methods for Isolation of Microorganisms (ibid), page 733, (2) Assay of activities in microbial culture filtrates with minor modification. Thus, the solution prepared as per Tables 1 and 2 was used as a test solution and the corresponding solution prepared by using the same quantity of distilled water in lieu of the test substance solution in otherwise the same composition was used as a control solution. Test tubes were filled with 5 ml aliquots of the test solution or the control solution and allowed to stand in upright position at 37° C. for 16 hours. After completion of the reaction each tube was shaken well to agitate the reaction system and the optical density at 550 nm was measured to find the degree of turbidity. The inhibitory activity of the test substance against GTase was calculated as a percentage with the turbidity of the control reaction system being taken as 100%. […]
Among the substances falling under the purview of the present invention, those mentioned in Table 3 (Substances 1 through 6) were used as test substances.
For each of the substances mentioned in Table 3, the GTase activity at the test substance concentration of 0.5% in the reaction system was assayed to estimate the inhibitory activity of the test substance.
For Substance 1, GTase activity was assayed in the reaction system corresponding to each concentration of the test substance in the range of 0.01% to 1.0% and to obtain correlation between inhibitory activity and test substance concentration.
For Substance 1 at a concentration of 0.5%, either aqueous sodium hydroxide solution or hydrochloric acid was added to portions of the substrate-test substance solution shown in Table 1 to prepare solutions adjusted to pH 4, 5, 6, 7 and 8, respectively, and using each of these solutions, the reaction was carried out at the corresponding pH. The GTase activity at each pH was assayed and the correlation between reaction system pH and inhibitory activity was studied.

Streptococcus mutans = test: Prevention of the adhesion of tooth decaying bacteria to the human tooth; type: cell-based, Streptococcus mutans ATCC 330402; conditions: 0.5% Substance 1; BHI medium with 5% sucrose; 37° C., 6 hours; scanning electron microscope x 4,000
Experimental: Two test tubes were respectively filled with BHI medium containing 5% of sucrose and a sterilized human tooth was suspended in each of the tubes using a stainless steel wire. After Substance 1 was added to one of the tubes at a final concentration of 0.5%, a culture of Streptococcus mutans ATCC 330402 grown in BHI medium at 37° C. for 18 hours was added to both tubes at a final concentration of 10^8 CFU/ml. The tubes were further incubated at 37° C. for 6 hours, at the end of which time the teeth were taken out, rinsed and observed with a scanning electron microscope at a magnification of x 4,000.

[1] = Table 4, 0.5% test substance, 37° C., 16 hours, buffer pH 6.5
[2] = Table 4, 0.5% test substance, 37° C., 16 hours, buffer pH 6.5, control 0.55

Structure (SMILES): Cc1c(C)c2c(c(C)c1OP(=O)(O)OC1=C(O)C(C(O)CO)OC1=O)CCC(C)(CCCC(C)CCCC(C)CCCC(C)C)O2 (centres unmarked) [Substance 1]
- inhibitory activity, dependence on concentration (GTase; 0.01% to 1.0%): concentration-dependent
- inhibition rates (GTase; 0.075% and higher concentrations): not less than 90%
- formation of insoluble glucan (GTase; 0.5%, pH range where GTase was active): very slight
- % Inhibition (GTase; [1]): 92.7%
- Optical density of reaction system (GTase; [2]): 0.04
- % Inhibition (GTase; Table 5, concentration 0.01%): 59.7%
- Optical density of reaction system (GTase; Table 5, concentration 0.01%, control 0.496): 0.20
- % Inhibition (GTase; Table 5, concentration 0.025%): 59.7%
- Optical density of reaction system (GTase; Table 5, concentration 0.025%, control 0.496): 0.20
- % Inhibition (GTase; Table 5, concentration 0.05%): 59.7%
- Optical density of reaction system (GTase; Table 5, concentration 0.05%, control 0.496): 0.20
- % Inhibition (GTase; Table 5, concentration 0.075%): 89.9%
- Optical density of reaction system (GTase; Table 5, concentration 0.075%, control 0.496): 0.05
- % Inhibition (GTase; Table 5, concentration 0.1%): 96.0%
- Optical density of reaction system (GTase; Table 5, concentration 0.1%, control 0.496): 0.02
- % Inhibition (GTase; Table 5, concentration 0.25%): 96.0%
- Optical density of reaction system (GTase; Table 5, concentration 0.25%, control 0.496): 0.02
- % Inhibition (GTase; Table 5, concentration 0.5%): 96.0%
- Optical density of reaction system (GTase; Table 5, concentration 0.5%, control 0.496): 0.02
- % Inhibition (GTase; Table 5, concentration 1.0%): 96.0%
- Optical density of reaction system (GTase; Table 5, concentration 1.0%, control 0.496): 0.02
- Optical density (GTase; Table 6, pH 4, 0.5% test substance, control 0.08): 0.05
- % Inhibition (GTase; Table 6, pH 5, 0.5% test substance): 71.4%
- Optical density (GTase; Table 6, pH 5, 0.5% test substance, control 0.35): 0.06
- % Inhibition (GTase; Table 6, pH 6, 0.5% test substance): 91.9%
- Optical density (GTase; Table 6, pH 6, 0.5% test substance, control 0.62): 0.05
- % Inhibition (GTase; Table 6, pH 7, 0.5% test substance): 94.9%
- Optical density (GTase; Table 6, pH 7, 0.5% test substance, control 0.59): 0.03
- Optical density (GTase; Table 6, pH 8, 0.5% test substance, control 0.05): 0.02
- inhibition rates (GTase; concentration of 0.01%): about 60%
- inhibition rate (GTase; pH 5, 0.5%): about 70%
- inhibition rate (GTase; pH 6 and 7, 0.5%): not less than 90%
- adherent bacterial cells and colonies on the tooth surface (FIG. 2) (Streptococcus mutans): neither adherent bacterial cells nor colonies
- adhesion of bacterial cells and subsequent formation of colonies on the tooth surface (Streptococcus mutans): completely inhibited

Structure (SMILES): Cc1cc(OP(=O)(O)OC2=C(O)C(C(O)CO)OC2=O)c(C)c2c1OC(C)(CCCC(C)CCCC(C)CCCC(C)C)CC2 (centres unmarked) [Substance 2]
- % Inhibition (GTase; [1]): 94.5%
- Optical density of reaction system (GTase; [2]): 0.03

Structure (SMILES): Cc1c(OP(=O)(O)OC2=C(O)C(C(O)CO)OC2=O)cc2c(c1C)OC(C)(CCCC(C)CCCC(C)CCCC(C)C)CC2 (centres unmarked) [Substance 3]
- % Inhibition (GTase; [1]): 94.5%
- Optical density of reaction system (GTase; [2]): 0.03

Structure (SMILES): Cc1cc(OP(=O)(O)OC2=C(O)C(C(O)CO)OC2=O)cc2c1OC(C)(CCCC(C)CCCC(C)CCCC(C)C)CC2 (centres unmarked) [Substance 4]
- % Inhibition (GTase; [1]): 94.5%
- Optical density of reaction system (GTase; [2]): 0.03

Structure (SMILES): CC(C)CCCC(C)CCCC(C)CCCC1(C)CCc2cc(OP(=O)(O)OC3=C(O)C(C(O)CO)OC3=O)ccc2O1 (centres unmarked) [Substance 5]
- % Inhibition (GTase; [1]): 94.5%
- Optical density of reaction system (GTase; [2]): 0.03

Structure (SMILES): Cc1c(C)c2c(c(C)c1OP(=O)(O)OC1=C(O)C(C(O)CO)OC1=O)CCC(C)(CCCC(C)CCCC(C)CCCC(C)C)O2 (centres unmarked) [Substance 6]
- % Inhibition (GTase; [1]): 95.8%
- Optical density of reaction system (GTase; [2]): 0.02
